Reference: patent US6706740B2, “Fungicidal heterocyclic aromatic amides and their compositions, methods of use and preparation” (Dow AgroSciences LLC, priority 1999, dated 2004)
Where two headings read alike, the source gives them in different places.

What was measured:
[1] = test system: Magnaporthe grisea (Pyricularia oryzae—PYRIOR); test: microbe, parasite or virus in culture; type: cell-based; details: Pyricularia oryzae, read-out: PYRIOR in vitro Growth Inhibition
[2] = test system: Rhizoctonia solani (RHIZSO); test: microbe, parasite or virus in culture; type: cell-based; details: Rhizoctonia solani, read-out: RHIZSO in vitro Growth Inhibition
[3] = test system: Mycosphaerella graminicola (Septoria tritici—SEPTTR); test: In vitro fungal growth inhibition, Mycosphaerella graminicola (SEPTTR); type: cell-based; details: Zymoseptoria tritici, read-out: SEPTTR in vitro Growth Inhibition
[4] = test system: Stagonospora nodorum (Leptosphaeria nodorum—LEPTNO); test: In vitro fungal growth inhibition, Stagonospora nodorum (LEPTNO); type: cell-based; details: Leptosphaeria, read-out: LEPTNO in vitro Growth Inhibition
[5] = test system: Ustilago maydis (USTIMA); test: microbe, parasite or virus in culture; type: cell-based; details: Mycosarcoma maydis, read-out: USTIMA in vitro Growth Inhibition
[6] = test system: Phytophthora infestans (PHYTIN); test: microbe, parasite or virus in culture; type: cell-based; details: Phytophthora infestans, read-out: PHYTIN in vitro Growth Inhibition
[7] = test system: Phytophthora infestans—PHYTIN; test: whole plant or invertebrate; type: in vivo; details: Phytophthora, in Solanum lycopersicum, 24 h, read-out: PHYTIN in vivo 1 Day Protectant
[8] = test system: Puccinia recondita—PUCCRT; test: Brown Rust of Wheat, in vivo whole plant, 24 Hour Protectant; details: for pest or weed control at 100 ppm: Puccinia, read-out: PUCCRT in vivo 1 Day Protectant
[9] = test system: Erysiphe graminis—ERYSGT; test: Powdery Mildew of Wheat, in vivo whole plant, 24 Hour Protectant; details: for pest or weed control at 100 ppm: Erysiphe, read-out: ERYSGT in vivo 1 Day Protectant
[10] = test system: Septoria tritici—SEPTTR; test: Leaf Blotch of Wheat, in vivo whole plant, 24 Hour Protectant; details: for SEPTTR in vivo 1 Day Protectant: % control of fungal infection vs untreated plants; for pest or weed control at 100 ppm: Zymoseptoria tritici, 24 h, control of fungal infection vs untreated plants, read-out: SEPTTR in vivo 1 Day Protectant
[11] = test system: Leptosphaeria nodorum—LEPTNO; test: Glume Blotch of Wheat, in vivo whole plant, 24 Hour Protectant; details: for pest or weed control at 100 ppm: Leptosphaeria, read-out: LEPTNO in vivo 1 Day Protectant
[12] = 100 ppm spray, wheat, 24 hour protectant, % control of fungal infection vs untreated plants
[13] = 100 ppm spray, wheat, 24 hour protectant
[14] = wheat plants sprayed at 100 ppm, inoculated after 24 hours, control of fungal infection vs untreated plants
[15] = wheat plants sprayed at 100 ppm, inoculated after 24 hours
[16] = 100 ppm spray, 24 hour protectant, wheat, control of fungal infection vs untreated plants

Row | Compound | inhibition at 25 ppm [1] [%] | inhibition at 25 ppm [2] [%] | inhibition at 25 ppm ([3]; 25 ppm in growth medium) [%] | inhibition at 25 ppm ([4]; 25 ppm in growth medium) [%] | inhibition at 25 ppm [5] [%] | inhibition at 25 ppm [6] [%] | pest or weed control at 100 ppm [7] [%] | pest or weed control at 100 ppm [9, 12] [%] | SEPTTR in vivo 1 Day Protectant [10, 13] | melting point | inhibition at 25 ppm ([3]; 25 ppm in the growth medium) [%] | inhibition at 25 ppm ([4]; 25 ppm in the growth medium) [%] | pest or weed control at 100 ppm [8, 14] [%] | pest or weed control at 100 ppm [9, 14] [%] | pest or weed control at 100 ppm [10, 15] [%] | pest or weed control at 100 ppm [11, 14] [%] | PUCCRT in vivo 1 Day Protectant [8, 12] | LEPTNO in vivo 1 Day Protectant [11, 12] | also measured
1 | COCCC(=O)Oc1c(OC)ccnc1C(=O)Nc1cccc(NC(=O)c2ccc(C(F)(F)F)cc2)c1 [Compound 718] | < 80 | < 80 | < 80 | < 80 | < 80 | < 80 | < 25 | < 25 | + + | 115 to 118 °C | – | – | – | – | – | – | – | – | pest or weed control at 100 ppm [8, 12]: 25 to 74%; pest or weed control at 100 ppm [11, 12]: 25 to 74%
2 | Cc1ncc(C(=O)N[C@H]2COC(=O)[C@H](Cc3ccccc3)[C@@H](OC(=O)C(C)C)[C@H](C)OC2=O)c(O)n1 [Compound 542] | < 80 | < 80 | – | – | < 80 | < 80 | < 25 | – | – | 220 °C (dec.) | < 80 | < 80 | < 25 | < 25 | 25 to 74 | < 25 | – | – | –
3 | CCC(=O)Oc1c(OC)ccnc1C(=O)N[C@H]1COC(=O)[C@H](Cc2ccccc2)[C@@H](OC(=O)C(C)C)[C@H](C)OC1=O [Compound 598] | < 80 | < 80 | > 80 | > 80 | < 80 | < 80 | < 25 | – | + + | 171 to 172 °C | – | – | – | – | – | – | + + | + + | ERYSGT in vivo 1 Day Protectant [9, 12]: + +
4 | COCCC(=O)Oc1c(OC)ccnc1C(=O)N[C@H]1COC(=O)[C@H](Cc2ccccc2)[C@@H](OC(=O)C(C)C)[C@H](C)OC1=O [Compound 658] | > 80 | < 80 | < 80 | < 80 | < 80 | < 80 | < 25 | < 25 | + + | 126 to 128 °C | – | – | – | – | – | – | + + | + + | –
5 | Cc1ccnc(C(=O)NC2COC(=O)[C@H](Cc3ccccc3)[C@@H](OC(=O)C(C)C)[C@H](C)OC2=O)c1O (stereo partly drawn) [Compound 237] | < 80 | < 80 | < 80 | < 80 | < 80 | < 80 | < 25 | – | – | 122 to 134 °C | – | – | – | – | – | – | – | – | PUCCRT in vivo 1 Day Protectant [8, 16]: + +; pest or weed control at 100 ppm [9, 16]: < 25%; pest or weed control at 100 ppm ([10]; 100 ppm spray, 24 hour protectant, wheat): 25 to 74%; pest or weed control at 100 ppm [11, 16]: 25 to 74%
6 | O=C(NCc1ccc(Cl)c(Cl)c1)c1cccnc1O [Compound 517] | < 80 | < 80 | – | – | < 80 | < 80 | < 25 | – | – | 229 to 230 °C | < 80 | < 80 | < 25 | < 25 | < 25 | 25 to 74 | – | – | –
